Legend:
Test in all cases: Test C plant response
Assay type in all cases: in vivo
Details in all cases: Postemergence, scale 0 to 100
[1] = system: blackgrass (Alopecurus myosuroides)
Text: (§1) Seeds of plant species selected from bluegrass (annual bluegrass, Poa annua), blackgrass (Alopecurus myosuroides), canarygrass (Phalaris minor), chickweed (common chickweed, Stellaria media), galium (catchweed bedstraw, Galium aparine), bromegrass (downy bromegrass, Bromus tectorum), field poppy (Papaver rhoeas), field violet (Viola arvensis), green foxtail (Setaria viridis), deadnettle (henbit deadnettle, Lamium amplexicaule), Italian ryegrass (Lolium multiflorum), kochia (Kochia scoparia), lambsquarters (Chenopodium album), oilseed rape (Brassica napus), pigweed (Amaranthus retroflexus), Russian thistle (Salsola iberica), spring barley (Hordeum vulgare), spring wheat (Triticum aestivum), buckwheat (wild buckwheat, Polygonum convolvulus), wild mustard (Sinapis arvensis), wild oat (Avena fatua), wild radish (Raphanus raphanistrum), windgrass (Apera spica-venti), winter barley (Hordeum vulgare), and winter wheat (Triticum aestivum) were planted and treated postemergence with test chemicals formulated in a non-phytotoxic solvent mixture which included a surfactant. Plants ranged in height from 2 to 18 cm (1- to 4-leaf stage).
(§2) Treated plants and controls were maintained in a controlled growth environment for 14 days after which time all test plants were visually evaluated and compared to controls. Plant response ratings, summarized in Table C, are based on a scale of 0 to 100 where 0 is no effect and 100 is complete control. A dash (-) response means no test result.

[2] = system: buckwheat (wild buckwheat, Polygonum convolvulus)
Text: as §1, §2

[3] = system: bromegrass (downy bromegrass, Bromus tectorum)
Text: as §1, §2

[4] = system: deadnettle (henbit deadnettle, Lamium amplexicaule)
Text: as §1, §2

[5] = system: wild mustard (Sinapis arvensis)
Text: as §1, §2

[6] = system: windgrass (Apera spica-venti)
Text: as §1, §2

[7] = system: green foxtail (Setaria viridis)
Text: as §1, §2

[8] = system: oilseed rape (Brassica napus)
Text: as §1, §2

[9] = system: bluegrass (annual bluegrass, Poa annua)
Text: as §1, §2

[10] = system: Russian thistle (Salsola iberica)
Text: as §1, §2

[11] = system: spring barley (Hordeum vulgare)
Text: as §1, §2

wild oat (Avena fatua) = system: wild oat (Avena fatua)
Text: as §1, §2

kochia (Kochia scoparia) = system: kochia (Kochia scoparia)
Text: as §1, §2

[12] = system: galium (catchweed bedstraw, Galium aparine)
Text: as §1, §2

[13] = system: lambsquarters (Chenopodium album)
Text: as §1, §2

[14] = system: spring wheat (Triticum aestivum)
Text: as §1, §2

[15] = system: winter barley (Hordeum vulgare)
Text: as §1, §2

[16] = system: winter wheat (Triticum aestivum)
Text: as §1, §2

[17] = system: Italian ryegrass (Lolium multiflorum)
Text: as §1, §2

Cc1ccccc1-n1c(-c2ccccc2)ncc(C(=O)C2=C(O)CCCC2=O)c1=O [Compound 12]
Plant response rating: Blackgrass ([1]; 31 g ai/ha): 20
Plant response rating: Blackgrass ([1]; 16 g ai/ha): 0
Plant response rating: Blackgrass ([1]; 62 g ai/ha): 30
Plant response rating: Blackgrass ([1]; 125 g ai/ha): 40
Plant response rating: Buckwheat, Wild ([2]; 31 g ai/ha): 15
Plant response rating: Buckwheat, Wild ([2]; 16 g ai/ha): 10
Plant response rating: Buckwheat, Wild ([2]; 62 g ai/ha): 50
Plant response rating: Buckwheat, Wild ([2]; 125 g ai/ha): 50
Plant response rating: Bromegrass, Downy ([3]; 31 g ai/ha): 10
Plant response rating: Bromegrass, Downy ([3]; 16 g ai/ha): 0
Plant response rating: Bromegrass, Downy ([3]; 62 g ai/ha): 15
Plant response rating: Bromegrass, Downy ([3]; 125 g ai/ha): 20
Plant response rating: Deadnettle ([4]; 31 g ai/ha): 100
Plant response rating: Deadnettle ([4]; 16 g ai/ha): 100
Plant response rating: Deadnettle ([4]; 62 g ai/ha): 100
Plant response rating: Deadnettle ([4]; 125 g ai/ha): 100
Plant response rating: Mustard, Wild ([5]; 31 g ai/ha): 95
Plant response rating: Mustard, Wild ([5]; 16 g ai/ha): 80
Plant response rating: Mustard, Wild ([5]; 62 g ai/ha): 95
Plant response rating: Mustard, Wild ([5]; 125 g ai/ha): 95
Plant response rating: Windgrass ([6]; 31 g ai/ha): 20
Plant response rating: Windgrass ([6]; 16 g ai/ha): 5
Plant response rating: Windgrass ([6]; 125 g ai/ha): 50
Plant response rating: Foxtail, Green ([7]; 31 g ai/ha): 60
Plant response rating: Foxtail, Green ([7]; 16 g ai/ha): 50
Plant response rating: Foxtail, Green ([7]; 62 g ai/ha): 80
Plant response rating: Foxtail, Green ([7]; 125 g ai/ha): 90
Plant response rating: Oilseed Rape ([8]; 31 g ai/ha): 70
Plant response rating: Oilseed Rape ([8]; 16 g ai/ha): 50
Plant response rating: Oilseed Rape ([8]; 62 g ai/ha): 80
Plant response rating: Oilseed Rape ([8]; 125 g ai/ha): 95
Plant response rating: Bluegrass ([9]; 31 g ai/ha): 20
Plant response rating: Bluegrass ([9]; 16 g ai/ha): 10
Plant response rating: Bluegrass ([9]; 62 g ai/ha): 30
Plant response rating: Bluegrass ([9]; 125 g ai/ha): 40
Plant response rating: Russian Thistle ([10]; 31 g ai/ha): 60
Plant response rating: Russian Thistle ([10]; 16 g ai/ha): 60
Plant response rating: Russian Thistle ([10]; 62 g ai/ha): 60
Plant response rating: Russian Thistle ([10]; 125 g ai/ha): 70
Plant response rating: Barley, Spring ([11]; 31 g ai/ha): 0
Plant response rating: Barley, Spring ([11]; 16 g ai/ha): 0
Plant response rating: Barley, Spring ([11]; 62 g ai/ha): 0
Plant response rating: Barley, Spring ([11]; 125 g ai/ha): 0
Plant response rating: Oat, Wild (wild oat (Avena fatua); 31 g ai/ha): 15
Plant response rating: Oat, Wild (wild oat (Avena fatua); 16 g ai/ha): 0
Plant response rating: Oat, Wild (wild oat (Avena fatua); 62 g ai/ha): 15
Plant response rating: Oat, Wild (wild oat (Avena fatua); 125 g ai/ha): 15
Plant response rating: Kochia (kochia (Kochia scoparia); 31 g ai/ha): 10
Plant response rating: Kochia (kochia (Kochia scoparia); 16 g ai/ha): 0
Plant response rating: Kochia (kochia (Kochia scoparia); 62 g ai/ha): 35
Plant response rating: Kochia (kochia (Kochia scoparia); 125 g ai/ha): 75
Plant response rating: Galium ([12]; 31 g ai/ha): 50
Plant response rating: Galium ([12]; 16 g ai/ha): 5
Plant response rating: Galium ([12]; 62 g ai/ha): 60
Plant response rating: Galium ([12]; 125 g ai/ha): 80
Plant response rating: Lambsquarters ([13]; 31 g ai/ha): 80
Plant response rating: Lambsquarters ([13]; 16 g ai/ha): 70
Plant response rating: Lambsquarters ([13]; 62 g ai/ha): 80
Plant response rating: Lambsquarters ([13]; 125 g ai/ha): 95
Plant response rating: Wheat, Spring ([14]; 31 g ai/ha): 0
Plant response rating: Wheat, Spring ([14]; 16 g ai/ha): 0
Plant response rating: Wheat, Spring ([14]; 62 g ai/ha): 0
Plant response rating: Wheat, Spring ([14]; 125 g ai/ha): 0
Plant response rating: Barley, Winter ([15]; 31 g ai/ha): 0
Plant response rating: Barley, Winter ([15]; 16 g ai/ha): 0
Plant response rating: Barley, Winter ([15]; 62 g ai/ha): 0
Plant response rating: Barley, Winter ([15]; 125 g ai/ha): 0
Plant response rating: Wheat, Winter ([16]; 31 g ai/ha): 0
Plant response rating: Wheat, Winter ([16]; 16 g ai/ha): 0
Plant response rating: Wheat, Winter ([16]; 62 g ai/ha): 0
Plant response rating: Wheat, Winter ([16]; 125 g ai/ha): 10
Plant response rating: Ryegrass, Italian ([17]; 31 g ai/ha): 0
Plant response rating: Ryegrass, Italian ([17]; 16 g ai/ha): 0
Plant response rating: Ryegrass, Italian ([17]; 62 g ai/ha): 0
Plant response rating: Ryegrass, Italian ([17]; 125 g ai/ha): 0

— patent publication US8952024B2, “Herbicidal pyrimidone derivatives” (E I du Pont de Nemours and Company, priority 2009, dated 2015)
